This passage reports IC50 and activity results from US11591297B2, “Compound having PD-L1 expression-suppressing action” (TOHOKU UNIVERSITY, priority 2019, dated 2023).

In this assay the test system is Jurkat cells. Nature of the assay: Caspase 3/7 assay: apoptosis of Jurkat cells co-cultured with IFN-γ-treated A549 cells (PD-1/PD-L1 binding). The format is cell-based. Particulars: Homo sapiens; for IC50: Jurkat cells co-cultured with A549 cells pre-cultured with IFN-γ and test compound, read-out: IC50 (50% inhibition concentration of Caspase 3/7 activity). From the text: The supernatants of each culture liquid containing A549 cells expressing PD-L1 pre-cultured with the addition of IFN-γ or human acute T-cell leukemia cell-derived Jurkat cells expressing PD-1 pre-cultured with the addition of Phorbol 12-myristate 13-Acetate (hereinafter, referred to as “PMA”: Sigma Cat #1585) and phytohemagglutinin-L (hereinafter, referred to as “PHA-L”: Roche Cat #11249738001) were removed, the culture liquids were co-cultured in new medium. The Caspase 3/7 activity of the co-cultured Jurkat cells was measured, and the measured activity was used as an index of apoptosis. Each test compound was added into the A549 cell culture liquid during the pre-culture.
(1) A549 cells were suspended in DMEM medium at 1×10^5 cells/mL to prepare an A549 cell suspension, and the A549 cell suspension was dispensed into each well a 6 well plate in an amount of 3 mL.
(2) Separately, Jurkat cells were suspended in RPMI medium at 3×10^5 cells/mL to prepare a Jurkat cell suspension, and the Jurkat cell suspension was dispensed into a T25 flask in an amount of 5 mL.
(3) The 6-well plate of the above step (1) and the T25 flask of the above step (2) were incubated together in a CO2 incubator (at 37° C. and 5% CO2) for 24±2 hours.
(1) To 3 mL of the A549 cell culture liquid were added IFN-γ (25 ng/mL) and a test compound, and the cell culture liquid was continuously cultured. The 50 mmol/L solution of the test compound in DMSO was diluted to 100 times with DMEM medium, and then the diluted solution was added as test compound group in an amount of 3 μL, 6 μL or 12 μL (final concentration: 0.5 μmol/L, 1.0 μmol/L or 2 μmol/L). In the control group, DMSO diluted to 100 times with DMEM medium was added in an amount of 12 μL. (2) Separately, to the Jurkat cell culture liquid were added PMA (final concentration: 12.5 ng/mL) and PHA (final concentration: 250 ng/mL), and the cell culture liquid was continuously cultured. [Day 3]
Cells were separated from A549 cell culture liquid with Cell Dissociation Solution Non-enzymatic (Sigma Cat No. C5914-100ML), and the cell culture liquid was centrifuged at 300×g for 5 minutes and the supernatant thereof was removed, and then the cells were suspended in RPMI medium at 4×10^5 cells/mL to prepare an A549 cell suspension.
The Jurkat cell culture liquid was centrifuged at 300×g for 5 minutes and the supernatant thereof was removed, and then the cells therein were suspended in RPMI medium at 4×10^4 cells/mL to prepare a Jurkat cell suspension.
0.25 mL of the prepared A549 cell suspension and 0.25 mL of the prepared Jurkat cell suspension (the ratio of the number of the cells is 10:1) were added into each well in a 24-well plate. 0.25 mL of A549 cells and 0.25 mL of RPMI medium were mixed and the mixture was cultured at 37° C. and 5% CO2 to prepare an A549 blank containing only A549 cells which is not co-cultured with Jurkat cells. The PD-L1 expression in A549 cells after 2 days from IFN-γ treatment and the PD-1 expression in Jurkat cells stimulated with PMA and PHA were confirmed by staining the cells with anti-CD274-PC7 antibody (PD-L1) or anti-CD279-FITC antibody (PD-1, eBioscience Cat No. 11-9969-42) in a similar procedure to that of Test Example 2 and measuring the stained cells with a flow cytometer.
The cells were cultured under the following 6 conditions.
(IF−Comp−): Co-culture of A549 cells pre-cultured without the addition of IFN-γ and the test compound as well as Jurkat cells
(IF+Comp−): Co-culture of A549 cells pre-cultured with the addition of IFN-γ and no test compound as well as Jurkat cells
(IF+Comp+): Co-culture of A549 cells pre-cultured with the addition of IFN-γ and the test compound as well as Jurkat cells
(A:IF−Comp−): Culture of only […] A549 cells pre-cultured without the addition of IFN-γ and the test compound
(A:IF+Comp−): Culture of only A549 cells pre-cultured with the addition of IFN-γ and no test compound […]

As for `COc1cc(C(=O)N2CCCC(C(=O)Nc3ccc(Oc4ccc(C(F)(F)F)cc4)cc3)C2)ccc1O` (stereo not shown) [Example 3, 1-(4-Hydroxy-3-methoxybenzoyl)-N-(4-(4-(trifluoromethyl)phenoxy)phenyl)piperidine-3-carboxamide], the IC50 was found to be 870 nM.

`COc1cc(C(=O)N2CCCC(C(=O)Nc3ccc(Oc4ccc(S(F)(F)(F)(F)F)cc4)cc3)C2)ccc1O` (stereo not shown) [Example 6, 1-(4-Hydroxy-3-methoxybenzoyl)-N-(4-(4-(pentafluorosulfanyl)phenoxy)phenyl)piperidine-3-carboxamide]: the IC50 turned out to be 740 nM.

Consider `O=C(Nc1ccc(Oc2ccc(C(F)(F)F)cc2)cc1)C1CCCN(C(=O)c2ccc([N+](=O)[O-])cc2)C1` (stereo not shown) [Example 2, 1-(4-Nitrobenzoyl)-N-(4-(4-(trifluoromethyl)phenoxy)phenyl) piperidine-3-carboxamide], for which the IC50 came out at 1100 nM.

Turning to `O=C(Nc1ccc(Oc2ccc(S(F)(F)(F)(F)F)cc2)cc1)C1CCCN(C(=O)c2ccc([N+](=O)[O-])cc2)C1` (stereo not shown) [Example 5, 1-(4-Nitrobenzoyl)-N-(4-(4-(pentafluorosulfanyl)phenoxy)phenyl)piperidine-3-carboxamide], the IC50 was 520 nM. The compound also displayed an activity at 0.25 µM (Jurkat, 0.25 μM, control (DMSO) defined as 100%) of 81.5%. For the same compound, the activity at 0.5 µM (Jurkat, 0.5 μM, control (DMSO) defined as 100%) worked out at 55.3%. Also, where the note is “Jurkat, 1 μM, control (DMSO) defined as 100%”, the activity at 1 µM is 32.1%.
